Experimental data published in US20100216795A1, “TNIK INHIBITOR AND THE USE” (priority 2008, published 2010).

Key:
Assay in all cases: Selectivity profiling, QuickScout STK Screening Panel
Assay type in all cases: biochemical
[1] = target: T1, AKT1 (Homo sapiens, UniProt P31749)
T1 construct: purchased Carna Biosciences
Method: (§1) The inhibitory effects of Compound 1 against 20 tyrosine kinases and 30 serine/threonine kinases were investigated using QuickScout™ TK and STK Screening Panel (Carna Biosciences, Kobe Japan). […] The results reveal that Compound 1 inhibits TNIK_N more potently (IC50; 9 nM) than the other 50 kinases.

[2] = target: T2, p70S6K (Homo sapiens, UniProt P23443)
T2 construct: purchased Carna Biosciences
Method: as §1

[3] = target: T3, CK1e (Homo sapiens, UniProt P49674)
T3 construct: purchased Carna Biosciences
T3 sequence (P49674 whole entry): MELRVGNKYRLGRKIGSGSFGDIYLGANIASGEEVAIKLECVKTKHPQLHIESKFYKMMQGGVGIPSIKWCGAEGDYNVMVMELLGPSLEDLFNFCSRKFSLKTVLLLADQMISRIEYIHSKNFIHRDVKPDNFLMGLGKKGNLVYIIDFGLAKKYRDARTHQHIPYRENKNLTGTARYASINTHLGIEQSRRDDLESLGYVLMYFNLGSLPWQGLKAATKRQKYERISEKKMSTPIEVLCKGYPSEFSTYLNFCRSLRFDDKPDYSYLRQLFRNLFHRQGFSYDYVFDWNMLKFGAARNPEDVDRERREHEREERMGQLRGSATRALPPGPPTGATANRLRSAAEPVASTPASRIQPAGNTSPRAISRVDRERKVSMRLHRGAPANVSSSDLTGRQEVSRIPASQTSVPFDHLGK
Method: as §1

[4] = target: T4, MST1 (Homo sapiens, UniProt Q13043)
T4 construct: purchased Carna Biosciences
T4 sequence (Q13043 whole entry): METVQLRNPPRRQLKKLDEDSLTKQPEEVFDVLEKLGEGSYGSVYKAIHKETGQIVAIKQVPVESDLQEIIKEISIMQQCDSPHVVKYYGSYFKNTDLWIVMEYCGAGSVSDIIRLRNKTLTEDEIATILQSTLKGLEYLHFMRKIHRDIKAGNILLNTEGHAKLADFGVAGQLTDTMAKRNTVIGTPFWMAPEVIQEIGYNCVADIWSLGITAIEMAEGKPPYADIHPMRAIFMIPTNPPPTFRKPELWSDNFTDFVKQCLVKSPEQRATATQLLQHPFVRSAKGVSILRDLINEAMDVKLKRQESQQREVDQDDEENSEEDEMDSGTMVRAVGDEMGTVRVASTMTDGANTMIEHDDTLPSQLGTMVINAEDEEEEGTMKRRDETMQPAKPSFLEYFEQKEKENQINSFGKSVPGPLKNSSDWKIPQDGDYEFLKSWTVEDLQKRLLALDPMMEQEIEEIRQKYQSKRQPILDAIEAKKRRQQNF
Method: as §1

[5] = target: T5, DYRK1B (Homo sapiens, UniProt Q9Y463)
T5 construct: purchased Carna Biosciences
T5 sequence (Q9Y463 whole entry): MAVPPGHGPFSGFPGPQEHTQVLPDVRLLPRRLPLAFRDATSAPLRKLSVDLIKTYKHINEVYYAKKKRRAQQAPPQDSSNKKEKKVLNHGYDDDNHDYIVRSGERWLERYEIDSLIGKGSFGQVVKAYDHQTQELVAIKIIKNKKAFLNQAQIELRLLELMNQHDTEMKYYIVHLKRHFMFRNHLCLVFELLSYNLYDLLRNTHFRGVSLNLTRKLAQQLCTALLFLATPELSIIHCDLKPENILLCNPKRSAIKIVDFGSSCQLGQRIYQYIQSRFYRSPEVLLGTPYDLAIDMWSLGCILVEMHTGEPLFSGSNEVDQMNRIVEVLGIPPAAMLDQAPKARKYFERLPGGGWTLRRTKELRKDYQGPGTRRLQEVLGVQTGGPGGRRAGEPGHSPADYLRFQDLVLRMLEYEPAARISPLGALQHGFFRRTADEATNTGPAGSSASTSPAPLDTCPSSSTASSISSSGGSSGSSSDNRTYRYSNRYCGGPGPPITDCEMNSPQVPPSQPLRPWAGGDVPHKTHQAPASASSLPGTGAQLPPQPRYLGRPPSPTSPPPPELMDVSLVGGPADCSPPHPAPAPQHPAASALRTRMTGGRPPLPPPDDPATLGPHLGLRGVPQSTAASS
Method: as §1

[6] = target: T6, PKACa (Homo sapiens, UniProt P17612)
T6 construct: purchased Carna Biosciences
Method: as §1

[7] = target: T7, IRAK4 (Homo sapiens, UniProt Q9NWZ3)
T7 construct: purchased Carna Biosciences
Method: as §1

[8] = target: T8, AurA (Homo sapiens, UniProt O14965)
T8 construct: purchased Carna Biosciences
T8 sequence (O14965 whole entry): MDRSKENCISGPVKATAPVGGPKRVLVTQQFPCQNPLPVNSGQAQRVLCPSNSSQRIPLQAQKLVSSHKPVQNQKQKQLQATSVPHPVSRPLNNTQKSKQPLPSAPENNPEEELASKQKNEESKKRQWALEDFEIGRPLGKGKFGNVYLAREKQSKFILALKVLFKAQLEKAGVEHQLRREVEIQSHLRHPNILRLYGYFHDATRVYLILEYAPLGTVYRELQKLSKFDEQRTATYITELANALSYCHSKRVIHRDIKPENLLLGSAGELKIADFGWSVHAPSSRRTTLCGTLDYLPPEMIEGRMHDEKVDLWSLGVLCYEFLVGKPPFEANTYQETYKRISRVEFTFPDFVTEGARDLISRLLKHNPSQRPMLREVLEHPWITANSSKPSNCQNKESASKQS
Method: as §1

[9] = target: T9, Erk2 (Homo sapiens, UniProt P28482)
T9 construct: purchased Carna Biosciences
Method: as §1

[10] = target: T10, ROCK1 (Homo sapiens, UniProt Q13464)
T10 construct: purchased Carna Biosciences
Method: as §1

[11] = target: T11, PAK4 (Homo sapiens, UniProt O96013)
T11 construct: purchased Carna Biosciences
T11 sequence (O96013 whole entry): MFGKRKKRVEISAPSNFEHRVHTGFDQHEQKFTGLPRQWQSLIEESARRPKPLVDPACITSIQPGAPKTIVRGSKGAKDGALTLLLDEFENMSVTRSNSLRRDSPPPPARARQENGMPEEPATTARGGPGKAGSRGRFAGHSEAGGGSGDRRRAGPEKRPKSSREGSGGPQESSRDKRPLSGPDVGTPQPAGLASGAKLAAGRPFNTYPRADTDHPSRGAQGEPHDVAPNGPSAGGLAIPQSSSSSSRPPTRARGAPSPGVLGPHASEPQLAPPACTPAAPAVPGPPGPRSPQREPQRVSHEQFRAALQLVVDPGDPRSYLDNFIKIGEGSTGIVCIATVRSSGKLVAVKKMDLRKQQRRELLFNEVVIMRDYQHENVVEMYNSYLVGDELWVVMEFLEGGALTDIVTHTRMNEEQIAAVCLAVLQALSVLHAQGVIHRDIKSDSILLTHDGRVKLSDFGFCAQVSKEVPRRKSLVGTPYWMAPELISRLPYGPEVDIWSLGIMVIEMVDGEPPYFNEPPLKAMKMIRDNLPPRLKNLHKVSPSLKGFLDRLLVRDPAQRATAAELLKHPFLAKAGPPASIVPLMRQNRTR
Method: as §1

[12] = target: T12, CHK1 (Homo sapiens, UniProt O14757)
T12 construct: purchased Carna Biosciences
T12 sequence (O14757 whole entry): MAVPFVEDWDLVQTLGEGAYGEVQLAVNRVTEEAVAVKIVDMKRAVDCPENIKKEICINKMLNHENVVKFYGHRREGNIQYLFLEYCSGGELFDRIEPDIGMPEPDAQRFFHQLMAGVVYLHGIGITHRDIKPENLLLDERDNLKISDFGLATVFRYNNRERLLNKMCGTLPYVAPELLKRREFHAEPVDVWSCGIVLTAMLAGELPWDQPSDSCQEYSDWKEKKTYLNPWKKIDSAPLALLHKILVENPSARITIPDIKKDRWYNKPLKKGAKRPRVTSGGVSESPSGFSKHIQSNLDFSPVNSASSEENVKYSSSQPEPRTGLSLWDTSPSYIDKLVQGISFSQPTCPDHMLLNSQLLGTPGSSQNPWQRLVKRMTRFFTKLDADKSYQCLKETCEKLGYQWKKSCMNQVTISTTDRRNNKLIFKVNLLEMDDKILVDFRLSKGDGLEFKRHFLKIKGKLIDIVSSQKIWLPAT
Method: as §1

[13] = target: T13, CaMK4 (Homo sapiens, UniProt Q16566)
T13 construct: purchased Carna Biosciences
Method: as §1

[14] = target: T14, IKKb (Homo sapiens, UniProt O14920)
T14 construct: purchased Carna Biosciences
Method: as §1

[15] = target: T15, MLK1 (Homo sapiens, UniProt P80192)
T15 construct: purchased Carna Biosciences
Method: as §1

[16] = target: T16, p38a (Homo sapiens, UniProt Q16539)
T16 construct: purchased Carna Biosciences
Method: as §1

[17] = target: T17, GSK3b (Homo sapiens, UniProt P49841)
T17 construct: purchased Carna Biosciences
Method: as §1

[18] = target: T18, CDK2 (Homo sapiens, UniProt P24941)
T18 construct: purchased Carna Biosciences
Method: as §1

[19] = target: T19, AMPKa1/b1/g1 (Homo sapiens, UniProt P54619+Q13131+Q9Y478)
T19 construct: purchased Carna Biosciences
Method: as §1

[20] = target: T20, PDK1 (Homo sapiens, UniProt O15530)
T20 construct: purchased Carna Biosciences
T20 sequence (O15530 whole entry): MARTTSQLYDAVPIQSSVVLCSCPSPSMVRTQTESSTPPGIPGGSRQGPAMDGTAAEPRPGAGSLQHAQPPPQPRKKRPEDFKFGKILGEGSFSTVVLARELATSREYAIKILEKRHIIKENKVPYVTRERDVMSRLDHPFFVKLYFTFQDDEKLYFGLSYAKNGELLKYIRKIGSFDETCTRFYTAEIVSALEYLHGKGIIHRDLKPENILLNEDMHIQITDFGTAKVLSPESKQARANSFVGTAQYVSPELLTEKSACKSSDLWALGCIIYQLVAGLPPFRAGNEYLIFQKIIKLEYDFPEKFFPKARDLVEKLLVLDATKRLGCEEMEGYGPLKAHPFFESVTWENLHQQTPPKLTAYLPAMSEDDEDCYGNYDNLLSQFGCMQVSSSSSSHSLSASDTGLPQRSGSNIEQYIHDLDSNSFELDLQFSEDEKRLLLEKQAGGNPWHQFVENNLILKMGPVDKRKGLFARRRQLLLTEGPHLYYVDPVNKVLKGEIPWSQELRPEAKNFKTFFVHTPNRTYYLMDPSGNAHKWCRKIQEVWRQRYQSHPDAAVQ
Method: as §1

[21] = target: T21, MAP2K1 (Homo sapiens, UniProt Q02750)
T21 construct: purchased Carna Biosciences
T21 sequence (Q02750 whole entry): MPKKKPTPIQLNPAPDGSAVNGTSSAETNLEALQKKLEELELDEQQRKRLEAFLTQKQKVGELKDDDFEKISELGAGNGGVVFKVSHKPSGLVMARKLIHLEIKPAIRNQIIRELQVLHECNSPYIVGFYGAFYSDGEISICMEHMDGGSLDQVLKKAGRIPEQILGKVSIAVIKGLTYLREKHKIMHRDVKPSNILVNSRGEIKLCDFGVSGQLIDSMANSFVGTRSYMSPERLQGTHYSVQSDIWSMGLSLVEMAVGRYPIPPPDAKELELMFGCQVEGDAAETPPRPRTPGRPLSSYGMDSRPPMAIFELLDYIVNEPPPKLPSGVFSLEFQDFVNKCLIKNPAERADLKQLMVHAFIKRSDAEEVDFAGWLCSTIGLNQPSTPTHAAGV
Method: as §1

[22] = target: T22, PIM1 (Homo sapiens, UniProt P11309)
T22 construct: purchased Carna Biosciences
Method: as §1

[23] = target: T23, PKCa (Homo sapiens, UniProt P17252)
T23 construct: purchased Carna Biosciences
Method: as §1

[24] = target: RAF1 (Homo sapiens, UniProt P04049)
Method: as §1

[25] = target: T24, JNK2 (Homo sapiens, UniProt P45984)
T24 construct: purchased Carna Biosciences
T24 sequence (P45984 whole entry): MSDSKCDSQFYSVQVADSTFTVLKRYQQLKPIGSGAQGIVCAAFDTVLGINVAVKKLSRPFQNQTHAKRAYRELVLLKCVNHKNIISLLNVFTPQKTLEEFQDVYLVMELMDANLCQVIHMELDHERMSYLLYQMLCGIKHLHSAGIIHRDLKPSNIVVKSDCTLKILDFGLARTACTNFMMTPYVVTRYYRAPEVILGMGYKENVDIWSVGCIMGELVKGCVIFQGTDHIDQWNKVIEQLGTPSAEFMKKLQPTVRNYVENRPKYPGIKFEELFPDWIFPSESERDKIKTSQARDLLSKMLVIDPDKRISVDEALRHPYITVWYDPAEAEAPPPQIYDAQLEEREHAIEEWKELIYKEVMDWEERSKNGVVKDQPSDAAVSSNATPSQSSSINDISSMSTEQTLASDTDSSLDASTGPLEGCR
Method: as §1

[26] = target: T25, MAPKAPK2 (Homo sapiens, UniProt P49137)
T25 construct: purchased Carna Biosciences
Method: as §1

[27] = target: T26, PKD2 (Homo sapiens, UniProt Q9BZL6)
T26 construct: purchased Carna Biosciences
Method: as §1

[28] = target: T27, DAPK1 (Homo sapiens, UniProt P53355)
T27 construct: purchased Carna Biosciences
Method: as §1

[29] = target: T28, NEK2 (Homo sapiens, UniProt P51955)
T28 construct: purchased Carna Biosciences
Method: as §1

[30] = target: T29, SGK (Homo sapiens, UniProt O00141)
T29 construct: purchased Carna Biosciences
T29 sequence (O00141 whole entry): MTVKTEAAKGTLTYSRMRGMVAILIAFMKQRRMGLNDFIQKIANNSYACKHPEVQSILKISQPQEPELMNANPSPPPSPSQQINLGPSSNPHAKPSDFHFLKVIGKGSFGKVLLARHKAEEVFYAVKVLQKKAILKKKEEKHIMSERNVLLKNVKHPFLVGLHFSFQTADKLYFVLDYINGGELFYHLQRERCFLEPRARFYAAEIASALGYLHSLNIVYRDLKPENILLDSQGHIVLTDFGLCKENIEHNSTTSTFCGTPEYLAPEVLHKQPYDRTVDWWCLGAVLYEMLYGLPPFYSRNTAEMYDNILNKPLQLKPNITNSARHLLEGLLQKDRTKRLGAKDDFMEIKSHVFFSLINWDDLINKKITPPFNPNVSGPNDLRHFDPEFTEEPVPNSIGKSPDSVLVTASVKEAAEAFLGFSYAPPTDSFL
Method: as §1

Compound: CC(=O)Nc1ccc(C(=O)Nc2sc(Nc3ccccc3)nc2C(N)=O)cc1 [Compound 1, 5-(4-acetamidobenzamido)-2-(phenylamino)thiazole-4-carboxamide]
- IC50 [1]: > 0.3 µM
- IC50 [2]: > 0.3 µM
- IC50 [3]: > 0.3 µM
- IC50 [4]: > 0.3 µM
- IC50 [5]: > 0.3 µM
- IC50 [6]: > 0.3 µM
- IC50 [7]: > 0.3 µM
- IC50 [8]: 0.13 µM
- IC50 [9]: > 0.3 µM
- IC50 [10]: > 0.3 µM
- IC50 [11]: > 0.3 µM
- IC50 [12]: > 0.3 µM
- IC50 [13]: > 0.3 µM
- IC50 [14]: > 0.3 µM
- IC50 [15]: 0.018 µM
- IC50 [16]: > 0.3 µM
- IC50 [17]: 0.12 µM
- IC50 [18]: > 0.3 µM
- IC50 [19]: > 0.3 µM
- IC50 [20]: > 0.3 µM
- IC50 [21]: > 0.3 µM
- IC50 [22]: > 0.3 µM
- IC50 [23]: > 0.3 µM
- IC50 [24]: > 0.3 µM
- IC50 [25]: > 0.3 µM
- IC50 [26]: > 0.3 µM
- IC50 [27]: > 0.3 µM
- IC50 [28]: > 0.3 µM
- IC50 [29]: > 0.3 µM
- IC50 [30]: > 0.3 µM
